Assay [1] has as its target T1, Microsomal triglyceride transfer protein large subunit (Bos taurus, UniProt P55156).
T1 sequence (P55156 whole entry): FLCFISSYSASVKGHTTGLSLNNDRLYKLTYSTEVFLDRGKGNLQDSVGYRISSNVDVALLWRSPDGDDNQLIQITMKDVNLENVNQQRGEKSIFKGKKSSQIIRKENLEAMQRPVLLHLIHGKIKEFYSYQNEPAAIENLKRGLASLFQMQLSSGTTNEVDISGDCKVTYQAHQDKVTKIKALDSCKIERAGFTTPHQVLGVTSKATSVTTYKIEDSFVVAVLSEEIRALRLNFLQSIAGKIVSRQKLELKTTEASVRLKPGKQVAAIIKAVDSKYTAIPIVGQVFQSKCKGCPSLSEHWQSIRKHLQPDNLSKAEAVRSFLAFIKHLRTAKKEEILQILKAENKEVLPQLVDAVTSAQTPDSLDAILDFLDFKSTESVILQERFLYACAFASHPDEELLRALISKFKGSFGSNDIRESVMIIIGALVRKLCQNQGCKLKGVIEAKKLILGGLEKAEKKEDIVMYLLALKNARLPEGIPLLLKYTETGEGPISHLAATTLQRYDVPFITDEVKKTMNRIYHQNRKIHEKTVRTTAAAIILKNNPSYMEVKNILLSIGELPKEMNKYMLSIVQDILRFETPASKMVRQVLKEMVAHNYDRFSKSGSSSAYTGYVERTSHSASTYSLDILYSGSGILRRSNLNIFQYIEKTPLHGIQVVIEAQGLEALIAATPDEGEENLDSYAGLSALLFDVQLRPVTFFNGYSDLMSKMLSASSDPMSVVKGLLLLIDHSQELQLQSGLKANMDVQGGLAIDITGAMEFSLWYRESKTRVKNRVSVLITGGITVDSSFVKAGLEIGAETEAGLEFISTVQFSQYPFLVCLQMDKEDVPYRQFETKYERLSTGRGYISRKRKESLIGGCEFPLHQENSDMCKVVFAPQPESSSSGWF
Nature of the assay: Inhibitory activity against microsomal triglyceride transfer protein (MTP).

Assay [2] concerns HepG2. Nature of the assay: Effective concentration against secretion of apolipoprotein A1 (ApoA1) from HepG2 cell using apolipoprotein secretion assay. The format is functional, cell-based. Particulars: Homo sapiens.
Assay [3] deals with HepG2. Briefly: Effective concentration against secretion of apolipoprotein B (ApoB) from HepG2 cell using apolipoprotein secretion assay. The assay is classed as functional, cell-based. Particulars: Homo sapiens.
Assay [4] relates to Rattus norvegicus. Briefly: Inhibitory activity (25 mg/kg) against hepatic lipoprotein secretion. The assay is classed as functional.
Assay [5] relates to Cricetinae gen. sp. Briefly: Inhibitory activity against plasma cholesterol level after oral administration (qd) (100 mg/kg) for 3 days in hamsters. The format is functional, Cricetulus griseus.
For assay [6], the system named is Rattus norvegicus. Briefly: Effective dose for inhibition of lipoprotein production (in vivo) after intravenous administration using fasted triton rat assay. The format is functional.
The test system of assay [7] is Rattus norvegicus. Nature of the assay: Effective dose for inhibition of lipoprotein production (in vivo) after oral administration using fasted triton rat assay. The assay is classed as functional.
The test system of assay [8] is Rattus norvegicus. Briefly: Ability to inhibit lipoprotein production (in vivo) after oral administration (50 mg/kg) using fasted triton rat assay;IA: inactive. The assay is classed as functional, organism-based.
Assay [9] has as its system Cricetinae gen. sp. Nature of the assay: Inhibitory activity against plasma cholesterol level after oral administration (15 mg/kg/day) in hamsters. The assay is classed as functional, Cricetulus griseus.
Assay [10] has as its system HepG2. Nature of the assay: Effective concentration against apolipoprotein A1 (ApoA1) from HepG2 cell using apolipoprotein secretion assay. As to conditions: Homo sapiens. The format is functional, cell-based.
For assay [11], the system named is HepG2. Briefly: Effective concentration against apolipoprotein B (ApoB) from HepG2 cell using apolipoprotein secretion assay. The assay is classed as functional, cell-based. As to conditions: Homo sapiens.
Assay [12] relates to Cricetinae gen. sp. Nature of the assay: Inhibitory activity against plasma cholesterol level after oral administration (15 mg/kg/day) over 3 days in hamsters. The format is functional, Cricetulus griseus.

SMILES strings stand for the structures. Calls of active or inactive are those of the source. The rule behind the calls is not given here. Where only a bound is given, the exact number is not on record here.

The text below walks through data of ChEMBL document CHEMBL1145768, “Microsomal triglyceride transfer protein inhibitors: discovery and synthesis of alkyl phosphonates as potent MTP inhibitors and cholesterol lowering agents” (Bioorg Med Chem Lett, 2003).

A word on the IC50: it is the concentration that gives 50% inhibition. A high value points to weaker potency. The term EC50 denotes the midpoint of the concentration-response curve. One may read the Inhibition as the change of the read-out against control, counted positive when it falls. A lower Inhibition goes with a weak effect.

For `CC(C)COP(=O)(CCCCC1(C(=O)NCC(F)(F)F)c2ccccc2-c2ccccc21)OCC(C)C`, half-maximal inhibition in assay [1] (IC50) was put at 55 nM.

Regarding `CCOP(=O)(CCCCC1(C(=O)NCC(F)(F)F)c2ccccc2-c2ccccc21)OCC`, the 50% inhibitory concentration (IC50) in assay [1] was 145 nM. `CCCCOP(=O)(CCCSc1ccncc1)OCCCC` returned a 50% inhibitory concentration (IC50) in assay [1] of 27000 nM. The same measure, in the same setting: with `O=C(NCC(F)(F)F)C1(CCCCP(=O)(OCc2cccnc2)OCc2cccnc2)c2ccccc2-c2ccccc21` the figure was 24 nM. The same measure, in the same setting: the result for `CCCCOP(=O)(CCCCC1(C(=O)NCCN2CCOCC2)c2ccccc2-c2ccccc21)OCCCC` reads 500 nM.

With `CCCCOP(=O)(CCCCC1(C(=O)NCCc2ccc(OC)cc2)c2ccccc2-c2ccccc21)OCCCC`, the EC50 was greater than 330 nM in the assay with HepG2 [2] and 23 nM in the assay with HepG2 [3]. Besides, the IC50 in assay [1] was found to be 21 nM. In the assay on Rattus norvegicus [4], this compound gave an Inhibition of 15%. Consider `CC(C)(C)COP(=O)(CCCCC1(C(=O)NCC(F)(F)F)c2ccccc2-c2ccccc21)OCC(C)(C)C`, for which it took 33 nM to reach half-maximal inhibition in assay [1] (IC50). In turn, `CCCCOP(=O)(CCCCC1(C(=O)NCC(F)(F)F)c2ccccc2-c2ccccc21)OCCCC` gave an Inhibition in the assay with Cricetinae gen. sp. [5] of 15%. In addition, the EC50 was greater than 3300 nM in the assay with HepG2 [2] and 7 nM in the assay on HepG2 [3]. Further, the IC50 in assay [1] was found to be 22 nM. Also, the ED30 was found to be 4 mg/kg with Rattus norvegicus [6] and 8 mg/kg with Rattus norvegicus [7].

For the compound `CCCCOP(=O)(CCCOc1ccccc1)OCCCC`, the half-maximal inhibitory concentration (IC50) in assay [1] is 4800 nM. As to `CCCCOP(=O)(CCCCSc1nc2ccc(OCC)cc2s1)OCCCC`, it took 12000 nM to reach half-maximal inhibition in assay [1] (IC50).

In assay [1], `CCCCOP(=O)(CCCCC1(C(=O)NCc2ccc(N)cc2)c2ccccc2-c2ccccc21)OCCCC` came in with a half-maximal inhibitory concentration (IC50) of 890 nM. On the same count and under the same terms, the result for `CCCOP(=O)(CCCCC1(C(=O)NCC(F)(F)F)c2ccccc2-c2ccccc21)OCCC` reads 90 nM; that for `CC(C)OP(=O)(CCCCC1(C(=O)NCC(F)(F)F)c2ccccc2-c2ccccc21)OC(C)C`, 280 nM; that for `CCCCOP(=O)(CCCSc1cccs1)OCCCC`, greater than 100000 nM. On the same count and under the same terms, the result for `CCCCOP(=O)(CCCSc1nc(-c2ccccc2)c(-c2ccccc2)[nH]1)OCCCC` reads greater than 30000 nM; that for `O=C(NCC(F)(F)F)C1(CCCCP(=O)(OCCc2ccccn2)OCCc2ccccn2)c2ccccc2-c2ccccc21`, 40 nM. Regarding `CCCCOP(=O)(CCCCC1(C(=O)NCc2ccccc2)c2ccccc2-c2ccccc21)OCCCC`, the results for the concentration for a half-maximal effect (EC50) in the assay with HepG2 [2] and in the assay with HepG2 [3] were greater than 1000 nM and 58 nM, respectively. The compound further yielded an IC50 in assay [1] of 250 nM. For the compound `CCCCOP(=O)(CCCCC1(C(=O)NCCC)c2ccccc2-c2ccccc21)OCCCC`, the half-maximal effective concentration (EC50) with HepG2 [2] turned out to be 8000 nM; with HepG2 [3], 100 nM. Besides, the midpoint of inhibition in assay [1], the IC50, lay at 14 nM. In addition, the outcome in the assay with Rattus norvegicus [8] was inactive. In addition, in the assay with Rattus norvegicus [6], the ED30 was determined as 15 mg/kg. `CCCCOP(=O)(CCCSc1nc2ccc(OCC)cc2o1)OCCCC`: 5000 nM corresponded to half-maximal inhibition in assay [1] (IC50).

Take `O=C(NCC(F)(F)F)C1(CCCCP(=O)(OCCCc2ccccn2)OCCCc2ccccn2)c2ccccc2-c2ccccc21`: the Inhibition in the assay on Cricetinae gen. sp. [9] is on record as 15%. The same compound gave a half-maximal inhibitory concentration (IC50) in [1] of 25 nM.

For `O=C(NC1CCN(CCCC2(C(=O)NCC(F)(F)F)c3ccccc3-c3ccccc32)CC1)c1ccccc1`, the EC50 with HepG2 [10] was greater than 3300 nM; in the assay on HepG2 [11], 80 nM. Moreover, half-maximal inhibition in assay [1] (IC50) required 230 nM. In assay [1], `CCCCOP(=O)(CCCCCC1(C(=O)NCC(F)(F)F)c2ccccc2-c2ccccc21)OCCCC` yielded a half-inhibitory concentration (IC50) of 65 nM. In the case of `CCCCOP(=O)(CCCCCSc1nc2ccc(OCC)cc2s1)OCCCC`, the IC50 in assay [1] was determined as 6000 nM. Same read-out and setting: the result for `Cc1cccc(CCCOP(=O)(CCCCC2(C(=O)NCC(F)(F)F)c3ccccc3-c3ccccc32)OCCCc2cccc(C)n2)n1` reads 45 nM; that for `O=C(NCC(F)(F)F)C1(CCCCP(=O)(OCc2ccncc2)OCc2ccncc2)c2ccccc2-c2ccccc21`, 85 nM; that for `CCCCOP(=O)(CCCSc1nc2cc(OCC)ccc2[nH]1)OCCCC`, 10000 nM. On the same count and under the same terms, with `CCCCOP(=O)(CCCSc1nc2ccc(OCC)cc2n1C)OCCCC` the figure was 6000 nM; with `CCCNC(=O)C1(CCCCP(=O)(OCC)OCC)c2ccccc2-c2ccccc21`, 135 nM; with `O=C1c2ccccc2CN1C1CCN(CCC(c2ccccc2)c2ccccc2)CC1`, 2200 nM. Compound `CCCCOP(=O)(CCCCC1(C(=O)NCc2ccccn2)c2ccccc2-c2ccccc21)OCCCC` gave a half-maximal inhibitory concentration (IC50) in assay [1] of 470 nM. With `Cc1cccc(COP(=O)(CCCCC2(C(=O)NCC(F)(F)F)c3ccccc3-c3ccccc32)OCc2cccc(C)n2)n1`, inhibition in [1] was half-maximal at 11 nM (IC50). Moreover, the Inhibition with Cricetinae gen. sp. [12] is reported as 35%. In assay [1], `CCCCOP(=O)(CCCCC1(C(=O)OC)c2ccccc2-c2ccccc21)OCCCC` showed a half-maximal inhibitory concentration (IC50) of 450 nM. Turning to `O=C(NCC(F)(F)F)C1(CCCCP(=O)(OCc2ccccn2)OCc2ccccn2)c2ccccc2-c2ccccc21`, 27 nM corresponded to half-maximal inhibition in assay [1] (IC50). Still for that read-out and setting: the result for `CCCCNC(=O)C1(CCCCP(=O)(OCCCC)OCCCC)c2ccccc2-c2ccccc21` reads 400 nM. In assay [1], `CCCCOP(=O)(CCCSc1nc(-c2ccccc2)c(-c2ccccc2)o1)OCCCC` came in with a concentration for half-maximal inhibition (IC50) of 6000 nM.

Compound `CCCCOP(=O)(CCCCCCC1(C(=O)NCC(F)(F)F)c2ccccc2-c2ccccc21)OCCCC` registered a half-inhibitory concentration (IC50) in assay [1] of 45 nM. Consider `C=CCC1(C(=O)NCC)c2ccccc2-c2ccccc21`, for which the half-maximal inhibitory concentration (IC50) in assay [1] turned out to be 2200 nM.

Take `CCCCOP(=O)(CCCSc1nc2ccc(OCC)cc2s1)OCCCC`: the EC50 stood at 13200 nM with HepG2 [10] and 3900 nM in the assay on HepG2 [11]. The IC50 in assay [1] is 4500 nM. In the case of `CCCCOP(=O)(CCCOc1cccc2ccccc12)OCCCC`, the 50% inhibitory concentration (IC50) in [1] came out at 30000 nM.
